Converted amounts (≈) assume the structure as drawn.
Columns and labels:
in vivo = conditions: C57/BL6, mouse, blood, po, 10 mg/kg
Description: Drug concentration in C57/BL6 mouse blood at 10 mg/kg, po bid measured after 14 hrs

[1] = target: T1, Leukotriene A-4 hydrolase (Homo sapiens, UniProt P09960); assay: Inhibition of LTA4H (unknown origin) using Arg-AMC as substrate preincubated with compound for 15 mins followed by substrate addition and measured after every 10 mins for 30 mins by fluorescence based analysis
T1 sequence (P09960 whole entry): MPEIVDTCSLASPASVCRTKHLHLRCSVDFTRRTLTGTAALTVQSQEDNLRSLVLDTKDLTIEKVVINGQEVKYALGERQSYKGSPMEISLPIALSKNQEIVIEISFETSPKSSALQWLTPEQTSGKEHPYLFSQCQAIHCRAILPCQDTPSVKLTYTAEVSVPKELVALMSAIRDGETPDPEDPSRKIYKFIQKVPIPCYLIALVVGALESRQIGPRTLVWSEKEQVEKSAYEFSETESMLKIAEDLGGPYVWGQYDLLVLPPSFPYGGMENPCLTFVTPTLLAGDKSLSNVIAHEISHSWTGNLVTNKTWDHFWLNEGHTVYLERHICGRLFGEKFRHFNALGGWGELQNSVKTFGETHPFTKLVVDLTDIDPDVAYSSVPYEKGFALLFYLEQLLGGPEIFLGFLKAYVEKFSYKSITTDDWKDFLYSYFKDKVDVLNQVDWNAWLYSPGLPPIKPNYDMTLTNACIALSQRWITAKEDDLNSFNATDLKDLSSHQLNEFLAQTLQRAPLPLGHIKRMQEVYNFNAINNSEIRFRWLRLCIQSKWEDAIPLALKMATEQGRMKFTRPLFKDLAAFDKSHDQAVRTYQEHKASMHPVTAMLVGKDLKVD

physchem [2] = conditions: octanol/water, pH 7.4
in vitro = conditions: dog, MDCK
Description: Apparent permeability coefficient of the compound across apical to basolateral side in dog MDCKII-LE cells

physchem [3] = conditions: buffer, pH 6.8
Description: Solubility of the compound at pH 6.8 using amorphous form of sample

Mus musculus = organism: Mus musculus; assay: animal or person; conditions: C57/BL6, po, 14 h, read-out: INH
Description: Inhibition of calcium ionophore A23187-stimulated LTB4 release in C57/BL6 mouse model at 10 mg/kg, po bid measured after 14 hrs

[4] = target: T2, Voltage-gated inwardly rectifying potassium channel KCNH2 (Homo sapiens, UniProt Q12809); assay: Inhibition of hERG by microfluidic patch clamp assay; format: toxicity
[5] = target: T2, Voltage-gated inwardly rectifying potassium channel KCNH2; assay: Inhibition of hERG by manual patch clamp assay; format: toxicity

T2 sequence (Q12809 whole entry): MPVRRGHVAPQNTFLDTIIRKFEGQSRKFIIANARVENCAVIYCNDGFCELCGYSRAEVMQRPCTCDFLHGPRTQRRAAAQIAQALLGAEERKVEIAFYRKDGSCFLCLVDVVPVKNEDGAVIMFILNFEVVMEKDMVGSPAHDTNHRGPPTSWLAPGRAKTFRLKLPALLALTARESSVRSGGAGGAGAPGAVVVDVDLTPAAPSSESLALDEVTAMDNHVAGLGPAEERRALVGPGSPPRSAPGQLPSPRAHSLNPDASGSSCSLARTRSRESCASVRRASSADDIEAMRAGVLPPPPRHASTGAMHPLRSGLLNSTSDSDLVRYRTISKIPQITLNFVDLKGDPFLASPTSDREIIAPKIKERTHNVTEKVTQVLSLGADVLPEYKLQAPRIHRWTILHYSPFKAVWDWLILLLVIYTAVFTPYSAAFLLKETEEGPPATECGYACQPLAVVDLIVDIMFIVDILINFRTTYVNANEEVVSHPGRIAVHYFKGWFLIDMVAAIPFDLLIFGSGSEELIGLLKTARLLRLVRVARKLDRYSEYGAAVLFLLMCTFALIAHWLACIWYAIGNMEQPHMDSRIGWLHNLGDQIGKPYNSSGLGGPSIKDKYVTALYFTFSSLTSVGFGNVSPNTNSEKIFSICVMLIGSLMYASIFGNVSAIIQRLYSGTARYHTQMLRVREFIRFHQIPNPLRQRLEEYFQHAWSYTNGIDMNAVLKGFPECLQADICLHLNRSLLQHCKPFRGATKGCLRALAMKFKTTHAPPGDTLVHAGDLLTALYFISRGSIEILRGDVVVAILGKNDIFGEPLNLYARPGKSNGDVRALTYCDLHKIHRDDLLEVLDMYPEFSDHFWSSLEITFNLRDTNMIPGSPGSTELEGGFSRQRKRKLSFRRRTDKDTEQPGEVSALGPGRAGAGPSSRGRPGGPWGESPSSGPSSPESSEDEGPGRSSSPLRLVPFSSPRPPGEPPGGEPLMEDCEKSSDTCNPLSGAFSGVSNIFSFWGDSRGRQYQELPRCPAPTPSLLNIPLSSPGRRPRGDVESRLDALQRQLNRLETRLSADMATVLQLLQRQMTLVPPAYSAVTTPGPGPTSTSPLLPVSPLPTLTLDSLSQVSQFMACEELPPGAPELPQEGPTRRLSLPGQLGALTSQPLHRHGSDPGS

concentration at 14 h (in vivo) | SMILES | IC50 [4] | IC50 [5] | also measured
184 nM | N[C@@H](CC(=O)O)Cn1nnc(-c2ccc(Oc3ncc(Cl)cc3F)cc2)n1 | – | – | –
218 nM | c1ccc(Oc2ccc(-c3c[nH]cn3)cc2)cc1 | – | – | IC50 [1]: 0.088 µM; logD (physchem [2]): 3.7; Papp A→B (in vitro): 56 ×10⁻⁶ cm/s; solubility (physchem [3]): 121 µM (≈ 28.6 µg/mL); inhibition in vivo at 10 mg/kg (Mus musculus): 93%
– | c1cc(-c2ccc(Oc3ccc(CN4CCCCC4)nc3)nc2)[nH]n1 | > 30 µM | 27 µM | –
– | CN(C)Cc1ccc(Oc2ccc(-c3ccn[nH]3)cn2)cn1 | > 30 µM | – | –
– | c1cc(-c2ccc(Oc3ccc(CN4CCCC4)nc3)nc2)[nH]n1 | > 30 µM | 19 µM | –
